Where a name gives a salt, the structure may show the parent alone. Read-outs that look alike come from different tables or passages of the source.
Columns and labels:
Type in all cases: cell-based
[1] = system: A431 cells; assay: Cellular proliferation (Alamar Blue) assay, A431
Experimental: (§1) • 1. EGFR(D770_N771insSVD) expressing Ba/F3 stable cell line • 2. EGFR (A767_dupASV) expressing Ba/F3 stable cell line • 3. A431 cells • 4. EGFR (H773insNPH) expressing Ba/F3 stable cell line • 5. HER2 (A775_G776insYVMA) expressing Ba/F3 stable cell line Assay Procedure: • 1. Seed cells at 5000 for A431 and 15,000 cells for Ba/F3 in 100 μL/well in complete media (for A431: DMEM with […] and for Ba/F3 cells: RPMI with 10% FBS) in 96-well tissue culture plate. Leave outer wells without cells for background measurements. Incubate at 37 degree Celsius in […] humidified incubator for 16-18 hours. • 2. Add 0.025 ml of 5× concentration compound dilution or DMSO control. Final compound concentration range is 10-0.0005 μM prepared in 3-fold serial dilutions. Incubate for 72 hr at 37 degree Celsius in […] humidified incubator. • 3. Add 0.0125 ml Alamar Blue™ reagent to each well with multi-channel pipette and tap gently on each side of the plate to mix. Incubate for 3 hours at 37 degree Celsius in 5% CO2 humidified incubator. • 4. […] Data analysis was performed using XLfit 5.5.0.5.

[2] = target: EGFR(D770_N771insSVD) expressing Ba/F3 stable cell line (Homo sapiens, UniProt P00533, DUP768-770, cells depend on it); assay: Cellular proliferation (Alamar Blue) assay, EGFR D770_N771insSVD Ba/F3; conditions: 72 hr, read-out: D770 IC50
Chain of EGFR(D770_N771insSVD) expressing Ba/F3 stable cell line (P00533 with tags, fused parts or gaps DUP768-770): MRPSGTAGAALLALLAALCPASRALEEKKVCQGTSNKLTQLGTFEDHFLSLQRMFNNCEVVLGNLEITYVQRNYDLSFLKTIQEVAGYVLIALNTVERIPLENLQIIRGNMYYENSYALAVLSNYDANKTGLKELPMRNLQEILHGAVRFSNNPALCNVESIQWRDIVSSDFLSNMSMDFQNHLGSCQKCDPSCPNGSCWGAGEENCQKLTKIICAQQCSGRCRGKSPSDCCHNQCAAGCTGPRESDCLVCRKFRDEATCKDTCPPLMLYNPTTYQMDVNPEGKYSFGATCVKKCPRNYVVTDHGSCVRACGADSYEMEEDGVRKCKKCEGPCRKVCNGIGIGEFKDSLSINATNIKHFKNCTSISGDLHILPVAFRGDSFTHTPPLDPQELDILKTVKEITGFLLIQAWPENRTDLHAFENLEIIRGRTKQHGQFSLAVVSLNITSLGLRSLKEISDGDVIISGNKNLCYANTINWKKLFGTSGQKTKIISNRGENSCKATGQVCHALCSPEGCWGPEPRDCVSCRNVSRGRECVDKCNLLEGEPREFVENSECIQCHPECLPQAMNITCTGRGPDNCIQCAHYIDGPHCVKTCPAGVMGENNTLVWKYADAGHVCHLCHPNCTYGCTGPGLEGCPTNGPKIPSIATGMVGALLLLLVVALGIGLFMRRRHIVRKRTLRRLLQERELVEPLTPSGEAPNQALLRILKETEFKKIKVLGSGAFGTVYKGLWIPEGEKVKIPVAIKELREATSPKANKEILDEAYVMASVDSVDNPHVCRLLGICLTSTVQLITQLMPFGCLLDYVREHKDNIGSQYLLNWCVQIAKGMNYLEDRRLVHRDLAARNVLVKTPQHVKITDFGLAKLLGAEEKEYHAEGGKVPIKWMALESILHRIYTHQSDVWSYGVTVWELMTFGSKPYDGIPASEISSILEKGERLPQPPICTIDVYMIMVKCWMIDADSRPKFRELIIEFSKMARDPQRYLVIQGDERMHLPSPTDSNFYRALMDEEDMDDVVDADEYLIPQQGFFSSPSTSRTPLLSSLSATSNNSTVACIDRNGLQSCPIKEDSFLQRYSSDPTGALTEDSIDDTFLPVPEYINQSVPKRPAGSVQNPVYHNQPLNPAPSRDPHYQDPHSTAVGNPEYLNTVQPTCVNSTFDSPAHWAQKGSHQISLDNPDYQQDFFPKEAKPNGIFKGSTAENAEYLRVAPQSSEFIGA
Experimental: as §1

[3] = target: EGFR (A767_dupASV) expressing Ba/F3 stable cell line (Homo sapiens, UniProt P00533, DUP767-769, cells depend on it); assay: Cellular proliferation (Alamar Blue) assay, EGFR A767_dupASV Ba/F3; conditions: 72 hr, read-out: A767 IC50
Chain of EGFR (A767_dupASV) expressing Ba/F3 stable cell line (P00533 with tags, fused parts or gaps DUP767-769): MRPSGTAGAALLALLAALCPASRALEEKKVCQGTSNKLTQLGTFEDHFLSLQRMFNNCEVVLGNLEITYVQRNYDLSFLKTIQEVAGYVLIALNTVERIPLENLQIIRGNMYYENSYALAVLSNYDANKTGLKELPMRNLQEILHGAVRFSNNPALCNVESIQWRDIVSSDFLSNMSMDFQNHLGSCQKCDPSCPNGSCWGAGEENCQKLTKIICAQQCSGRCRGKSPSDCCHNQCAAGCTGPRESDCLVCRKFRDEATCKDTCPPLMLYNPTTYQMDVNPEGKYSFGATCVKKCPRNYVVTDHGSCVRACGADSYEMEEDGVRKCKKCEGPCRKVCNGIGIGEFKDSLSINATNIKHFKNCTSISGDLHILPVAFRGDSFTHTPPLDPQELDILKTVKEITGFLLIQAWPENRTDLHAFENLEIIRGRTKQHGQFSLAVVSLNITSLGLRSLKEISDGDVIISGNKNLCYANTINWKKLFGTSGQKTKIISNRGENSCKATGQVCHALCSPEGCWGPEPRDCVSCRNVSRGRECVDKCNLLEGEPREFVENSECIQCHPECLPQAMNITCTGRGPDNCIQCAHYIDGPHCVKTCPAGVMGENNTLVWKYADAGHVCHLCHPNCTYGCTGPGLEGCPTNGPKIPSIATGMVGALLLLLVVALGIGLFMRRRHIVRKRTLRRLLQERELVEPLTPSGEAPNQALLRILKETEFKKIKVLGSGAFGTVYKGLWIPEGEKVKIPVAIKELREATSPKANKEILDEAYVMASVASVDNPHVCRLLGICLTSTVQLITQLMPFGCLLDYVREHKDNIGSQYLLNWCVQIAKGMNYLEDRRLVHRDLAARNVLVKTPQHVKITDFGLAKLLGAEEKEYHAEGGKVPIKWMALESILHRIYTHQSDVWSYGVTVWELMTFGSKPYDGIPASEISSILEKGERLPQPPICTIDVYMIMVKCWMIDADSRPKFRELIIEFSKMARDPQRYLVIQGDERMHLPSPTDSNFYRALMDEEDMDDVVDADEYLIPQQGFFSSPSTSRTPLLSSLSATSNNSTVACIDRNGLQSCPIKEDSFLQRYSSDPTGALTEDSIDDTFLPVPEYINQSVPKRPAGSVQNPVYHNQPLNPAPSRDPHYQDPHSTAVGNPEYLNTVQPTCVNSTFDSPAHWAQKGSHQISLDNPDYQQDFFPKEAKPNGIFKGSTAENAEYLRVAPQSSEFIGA
Experimental: as §1

[4] = Homo sapiens, A-431; A431 cells, Alamar Blue, 72 hr; read-out: A431 IC50
[5] = Homo sapiens, A-431; A431 cells, 72 hr, Alamar Blue; read-out: A431 IC50

Row | IC50 [1, 4] [µM] | GI50 [2] [nM] | GI50 [3] [nM] | IC50 [1, 5] [µM] | SMILES
1 | > 10 | 9240 | > 10000 |  | C=CC(=O)Nc1ccc(F)c(Nc2nc(Nc3ccc(=O)[nH]c3)ncc2Cl)c1 [Compound 2, N-(3-((5-chloro-2-((6-oxo-1,6-dihydropyridin-3-yl)amino)pyrimidin-4-yl)amino)-4-fluorophenyl)acrylamide]
2 | > 10 | > 10000 | > 10000 |  | C=CC(=O)Nc1ccc(F)c(Nc2nc(-n3ccc(N)cc3=O)ncc2Cl)c1 [Compound 3, N-(3-((2-(4-amino-2-oxopyridin-1(2H)-yl)-5-chloropyrimidin-4-yl)amino)-4-fluorophenyl)acrylamide]
3 | 6.59 | 3000 | 1760 |  | CN(C)C/C=C/C(=O)Nc1ccc(F)c(Nc2nc(Nc3cnn(C)c3)ncc2Cl)c1 [Compound 4, (E)-N-(3-((5-chloro-2-((1-methyl-1H-pyrazol-4-yl)amino)pyrimidin-4-yl)amino)-4-fluorophenyl)-4-(dimethylamino)but-2-enamide]
4 | 3.01 | > 10000 | > 10000 |  | C=CC(=O)Nc1ccc(Nc2nc(Nc3cnn(C)c3)ncc2Cl)c(F)c1 [Compound 10, N-(4-((5-chloro-2-((1-methyl-1H-pyrazol-4-yl)amino)pyrimidin-4-yl)amino)-3-fluorophenyl)acrylamide]
5 | > 10 | 2410 |  |  | C=CC(=O)Nc1ccc(F)c(N(c2ccccc2)c2nc(Nc3cnn(C)c3)ncc2Cl)c1 [Compound 20, N-(3-((5-chloro-2-((1-methyl-1H-pyrazol-4-yl)amino)pyrimidin-4-yl)(phenyl)amino)-4-fluorophenyl)acrylamide]
6 | > 10 | 4760 |  |  | C=CC(=O)Nc1ccc(F)c(Nc2nc(Nc3cc(COC)n(C)n3)ncc2Cl)c1 [Compound 21, N-(3-((5-chloro-2-((5-(methoxymethyl)-1-methyl-1H-pyrazol-3-yl)amino)pyrimidin-4-yl)amino)-4-fluorophenyl)acrylamide]
7 | > 10 | 2620 | 1990 |  | Cc1cc(Nc2ncc(Cl)c(Nc3cc(NC(=O)/C=C/CN(C)C)ccc3F)n2)sn1 [Compound 27, (E)-N-(3-((5-chloro-2-((3-methylisothiazol-5-yl)amino)pyrimidin-4-yl)amino)-4-fluorophenyl)-4-(dimethylamino)but-2-enamide]
8 | 1.36 | 360 | 947 |  | C=CC(=O)Nc1ccc(F)c(Nc2nc(Nc3cccnc3F)ncc2-c2ccc(C(F)(F)F)cc2)c1 [Compound 38, N-(4-fluoro-3-((2-((2-fluoropyridin-3-yl)amino)-5-(4-(trifluoromethyl)phenyl)pyrimidin-4-yl)amino)phenyl)acrylamide]
9 | 2.93 | 3040 | 8290 |  | C=CC(=O)Nc1ccc(F)c(Nc2nc(Nc3ccccc3OC)ncc2-c2ccc(C(F)(F)F)cc2)c1 [Compound 39, N-(4-fluoro-3-((2-((2-methoxyphenyl)amino)-5-(4-(trifluoromethyl)phenyl)pyrimidin-4-yl)amino)phenyl)acrylamide trifluoroacetate]
10 | 3.83 | > 10000 | > 10000 |  | C=CC(=O)Nc1ccc(F)c(Nc2nc(Nc3ccccc3Cl)ncc2-c2ccc(C(F)(F)F)cc2)c1 [Compound 40, N-(3-((2-((2-chlorophenyl)amino)-5-(4-(trifluoromethyl)phenyl)pyrimidin-4-yl)amino)-4-fluorophenyl)acrylamide trifluoroacetate]
11 | 7.33 | 1660 | > 10000 |  | C=CC(=O)Nc1ccc(F)c(Nc2nc(Nc3csc(Cl)c3)ncc2-c2ccc(C(F)(F)F)cc2)c1 [Compound 41, N-(3-((2-((5-chlorothiophen-3-yl)amino)-5-(4-(trifluoromethyl)phenyl)pyrimidin-4-yl)amino)-4-fluorophenyl)acrylamide trifluoroacetate]
12 | 8.99 | > 10000 | > 10000 |  | C=CC(=O)Nc1ccc(F)c(Nc2nc(NC3CCN(C)CC3)ncc2-c2ccc(C(F)(F)F)cc2)c1 [Compound 42, N-(4-fluoro-3-((2-((1-methylpiperidin-4-yl)amino)-5-(4-(trifluoromethyl)phenyl)pyrimidin-4-yl)amino)phenyl)acrylamide trifluoroacetate]
13 | 3.67 | > 10000 | > 10000 |  | C=CC(=O)Nc1ccc(F)c(Nc2nc(NCCN(C)C)ncc2-c2ccc(C(F)(F)F)cc2)c1 [Compound 43, N-(3-((2-((2-(dimethylamino)ethyl)amino)-5-(4-(trifluoromethyl)phenyl)pyrimidin-4-yl)amino)-4-fluorophenyl)acrylamide trifluoroacetate]
14 | 0.484 | > 10000 | > 10000 |  | C=CC(=O)Nc1ccc(F)c(Nc2nc(Nc3ccc(N(C)C)cc3)ncc2-c2ccc(C(F)(F)F)cc2)c1 [Compound 44, N-(3-((2-((4-(dimethylamino)phenyl)amino)-5-(4-(trifluoromethyl)phenyl)pyrimidin-4-yl)amino)-4-fluorophenyl)acrylamide trifluoroacetate]
15 | 0.523 | 973 | 2740 |  | C=CC(=O)Nc1ccc(F)c(Nc2nc(Nc3ccsc3)ncc2-c2ccc(C(F)(F)F)cc2)c1 [Compound 46, N-(4-fluoro-3-((2-(thiophen-3-ylamino)-5-(4-(trifluoromethyl)phenyl)pyrimidin-4-yl)amino)phenyl)acrylamide trifluoroacetate]
16 | > 10 | 8620 | 3290 |  | C=CC(=O)Nc1ccc(F)c(Nc2nc(Nc3cnn(C)c3)ncc2C(=O)N(C)c2ccccc2)c1 [Compound 49, 4-((5-acrylamido-2-fluorophenyl)amino)-N-methyl-2-((1-methyl-1H-pyrazol-4-yl)amino)-N-phenylpyrimidine-5-carboxamide]
17 | > 10 | 2890 | 2660 |  | C=CC(=O)Nc1ccc(F)c(Nc2nc(Nc3cnn(C)c3)ncc2-c2ccc(NC(C)=O)cc2)c1 [Compound 58, N-(3-((5-(4-acetamidophenyl)-2-((1-methyl-1H-pyrazol-4-yl)amino)pyrimidin-4-yl)amino)-4-fluorophenyl)acrylamide]
18 | > 10 | 7870 | 3000 |  | C=CC(=O)Nc1ccc(F)c(Nc2nc(Nc3cnn(C)c3)ncc2-c2ccc(C(=O)NC)cc2)c1 [Compound 64, 4-(4-((5-acrylamido-2-fluorophenyl)amino)-2-((1-methyl-1H-pyrazol-4-yl)amino)pyrimidin-5-yl)-N-methylbenzamide]
19 | 1.94 | 1000 | 2740 |  | C=CC(=O)Nc1ccc(F)c(Nc2nc(Nc3cnn(C)c3)ncc2-c2ccccc2C(F)(F)F)c1 [Compound 65, N-(4-fluoro-3-((2-((1-methyl-1H-pyrazol-4-yl)amino)-5-(2-(trifluoromethyl)phenyl)pyrimidin-4-yl)amino)phenyl)acrylamide]
20 | 0.082 | 256 | 751 |  | C=CC(=O)Nc1ccc(F)c(Nc2nc(Nc3cnn(C)c3)ncc2-c2ccnc(C)c2)c1 [Compound 80, N-(4-fluoro-3-((2-((1-methyl-1H-pyrazol-4-yl)amino)-5-(2-methylpyridin-4-yl)pyrimidin-4-yl)amino)phenyl)acrylamide]
21 |  | > 10000 | > 10000 |  | C=CC(=O)Nc1cccc2c1ccn2-c1nc(Nc2cnn(C)c2)ncc1-c1ccc(C(F)(F)F)cc1 [Compound 81, N-(1-(2-((1-methyl-1H-pyrazol-4-yl)amino)-5-(4-(trifluoromethyl)phenyl)pyrimidin-4-yl)-1H-indol-4-yl)acrylamide]
22 | > 10 | 671 | 942 |  | C=CC(=O)Nc1ccc(F)c(Nc2nc(Nc3cnn(C)c3)ncc2-c2cn[nH]c2)c1 [Compound 98, N-(4-fluoro-3-((2-((1-methyl-1H-pyrazol-4-yl)amino)-5-(1H-pyrazol-4-yl)pyrimidin-4-yl)amino)phenyl)acrylamide]
23 |  | > 10000 | > 10000 |  | C=CC(=O)Nc1ccc(F)c(Nc2nc(Nc3cnn(C)c3)ncc2-c2ccc(N(C)C)nc2)c1 [Compound 107, N-(3-((5-(6-(dimethylamino)pyridin-3-yl)-2-((1-methyl-1H-pyrazol-4-yl)amino)pyrimidin-4-yl)amino)-4-fluorophenyl)acrylamide]
24 |  |  |  | 6.23 | C=CC(=O)Nc1ccc(F)c(Nc2nc(Nc3cnn(C)c3)ncc2-c2ccccc2-c2ccccc2)c1 [Compound 263, N-(3-((5-([1,1′-biphenyl]-2-yl)-2-((1-methyl-1H-pyrazol-4-yl)amino)pyrimidin-4-yl)amino)-4-fluorophenyl)acrylamide]
25 |  |  |  | 4.89 | C=CC(=O)Nc1ccc(F)c(Nc2nc(Nc3cnn(C)c3)ncc2-c2cccc3cc[nH]c23)c1 [Compound 265, N-(3-((5-(1H-indol-7-yl)-2-((1-methyl-1H-pyrazol-4-yl)amino)pyrimidin-4-yl)amino)-4-fluorophenyl)acrylamide]

Source: patent US12686673B2 (Blueprint Medicines Corporation, priority 2020, dated 2026)
